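Assay format: 96-well plates, 48-hour exposure. Abbreviation: GI50, concentration required for 50% inhibition of growth. TGI: concentration producing complete growth inhibition.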
Experiments:
Assay in all cases: growth of human tumour cells (NCI), 48 h
[1] = tested on: 786-0 renal
[2] = tested on: A498 renal
[3] = tested on: A549 NSCLC
[4] = tested on: ACHN renal
[5] = tested on: BT-549 breast
[6] = tested on: CAKI-1 renal
[7] = tested on: CCRF-CEM leukemia
[8] = tested on: COLO 205 colon
[9] = tested on: DU-145 prostate
[10] = tested on: EKVX NSCLC
[11] = tested on: HCC-2998 colon
[12] = tested on: HCT-116 colon
[13] = tested on: HCT-15 colon
[14] = tested on: HL-60(TB) leukemia
[15] = tested on: HOP-62 NSCLC
[16] = tested on: HOP-92 NSCLC
[17] = tested on: HS 578T breast
[18] = tested on: HT29 colon
[19] = tested on: IGROV1 ovarian
[20] = tested on: K-562 leukemia
[21] = tested on: KM12 colon
[22] = tested on: LOX IMVI melanoma
[23] = tested on: M14 melanoma
[24] = tested on: MALME-3M melanoma
[25] = tested on: MCF7 breast
[26] = tested on: MDA-MB-231 breast
[27] = tested on: MDA-MB-435
[28] = tested on: MOLT-4 leukemia
[29] = tested on: NCI-H226 lung
[30] = tested on: NCI-H23 lung
[31] = tested on: NCI-H460 lung
[32] = tested on: NCI-H522 lung
[33] = tested on: NCI/ADR-RES ovarian
[34] = tested on: OVCAR-3 ovarian
[35] = tested on: OVCAR-4 ovarian
[36] = tested on: OVCAR-5 ovarian
[37] = tested on: OVCAR-8 ovarian
[38] = tested on: PC-3 prostate
[39] = tested on: RPMI-8226 leukemia
[40] = tested on: RXF 393 renal
[41] = tested on: SF-268 CNS
[42] = tested on: SF-295 CNS
[43] = tested on: SF-539 CNS
[44] = tested on: SK-MEL-2 melanoma
[45] = tested on: SK-MEL-28 melanoma
[46] = tested on: SK-MEL-5 melanoma
[47] = tested on: SK-OV-3 ovarian
[48] = tested on: SN12C renal
[49] = tested on: SNB-19 CNS
[50] = tested on: SNB-75 CNS
[51] = tested on: SR leukemia
[52] = tested on: SW-620 colon
[53] = tested on: T-47D breast
[54] = tested on: TK-10 renal
[55] = tested on: U251 CNS
[56] = tested on: UACC-257 melanoma
[57] = tested on: UACC-62 melanoma
[58] = tested on: UO-31 renal

Molecule CS(=O)(=O)Nc1cc(-c2ccc3ncc(C#N)c(NCc4ccccc4)c3c2)cnc1Cl has a GI50 [1] of 350 nM, a TGI [1] greater than 45400 nM and a GI50 [2] of 101 nM. For the same molecule, the TGI [2] was 498 nM, the GI50 [3] was 500 nM and the TGI [3] was 7740 nM. The GI50 [4] was 434 nM, the TGI [4] was greater than 46300 nM and the GI50 [5] was 155 nM. It also gave a TGI [5] of 2040 nM, a GI50 [6] of 186 nM and a TGI [6] of 2370 nM. For the same molecule, the GI50 [7] was 117 nM, the TGI [7] was 15200 nM and the GI50 [8] was 353 nM. For the same molecule, the TGI [8] was 2870 nM, the GI50 [9] was 322 nM and the TGI [9] was 19200 nM. The GI50 [10] was 340 nM, the TGI [10] was 3860 nM and the GI50 [11] was 325 nM. The TGI [11] was 6420 nM, the GI50 [12] was 334 nM and the TGI [12] was 4360 nM. It also gave a GI50 [13] of 268 nM, a TGI [13] of 11400 nM and a GI50 [14] of 294 nM. The TGI [14] was 7520 nM, the GI50 [15] was 270 nM and the TGI [15] was 9120 nM. The GI50 [16] was 33.7 nM, the TGI [16] was 399 nM and the GI50 [17] was 65 nM. It also gave a TGI [17] of 521 nM, a GI50 [18] of 463 nM and a TGI [18] of 25000 nM. For the same molecule, the GI50 [19] was 89.6 nM, the TGI [19] was 667 nM and the GI50 [20] was 311 nM. The TGI [20] was greater than 100000 nM, the GI50 [21] was 431 nM and the TGI [21] was 4980 nM. It also gave a GI50 [22] of 214 nM, a TGI [22] of 1110 nM and a GI50 [23] of 178 nM. It also gave a TGI [23] of 10800 nM, a GI50 [24] of 79 nM and a TGI [24] of 626 nM. The GI50 [25] was 63.7 nM, the TGI [25] was 3750 nM and the GI50 [26] was 331 nM. It also gave a TGI [26] of 6370 nM, a GI50 [27] of 299 nM and a TGI [27] of 8270 nM. For the same molecule, the GI50 [28] was 177 nM, the TGI [28] was 3940 nM and the GI50 [29] was 347 nM. For the same molecule, the TGI [29] was 18000 nM, the GI50 [30] was 291 nM and the TGI [30] was 15600 nM. The GI50 [31] was 371 nM, the TGI [31] was greater than 100000 nM and the GI50 [32] was 281 nM. The TGI [32] was 13900 nM, the GI50 [33] was 1700 nM and the TGI [33] was 28900 nM. It also gave a GI50 [34] of 254 nM, a TGI [34] of 2790 nM and a GI50 [35] of 325 nM. The TGI [35] was greater than 42700 nM, the GI50 [36] was 440 nM and the TGI [36] was 21100 nM. It also gave a GI50 [37] of 364 nM, a TGI [37] greater than 39400 nM and a GI50 [38] of 158 nM. The TGI [38] was 2750 nM, the GI50 [39] was 212 nM and the TGI [39] was 1070 nM. For the same molecule, the GI50 [40] was 38.4 nM, the TGI [40] was 435 nM and the GI50 [41] was 197 nM. It also gave a TGI [41] of 5220 nM, a GI50 [42] of 192 nM and a TGI [42] of 1740 nM. For the same molecule, the GI50 [43] was 205 nM, the TGI [43] was 1700 nM and the GI50 [44] was 195 nM. For the same molecule, the TGI [44] was 975 nM, the GI50 [45] was 175 nM and the TGI [45] was 10200 nM. For the same molecule, the GI50 [46] was 146 nM, the TGI [46] was 344 nM and the GI50 [47] was 259 nM. The TGI [47] was 1610 nM, the GI50 [48] was 233 nM and the TGI [48] was greater than 49500 nM. For the same molecule, the GI50 [49] was 268 nM, the TGI [49] was 11600 nM and the GI50 [50] was 38.2 nM. For the same molecule, the TGI [50] was 334 nM, the GI50 [51] was 164 nM and the TGI [51] was 7910 nM. For the same molecule, the GI50 [52] was 351 nM, the TGI [52] was greater than 36100 nM and the GI50 [53] was 52.1 nM. It also gave a TGI [53] of 2670 nM, a GI50 [54] of 190 nM and a TGI [54] of 1970 nM. For the same molecule, the GI50 [55] was 218 nM, the TGI [55] was 12700 nM and the GI50 [56] was 327 nM. For the same molecule, the TGI [56] was 6320 nM, the GI50 [57] was 76.4 nM and the TGI [57] was 815 nM. The GI50 [58] was 111 nM and the TGI [58] was 3170 nM.
